Measurements published in patent US8796256B2 (Janssen Pharmaceutica NV, priority 2010, dated 2014).

Biological target: T1, ERR1 (also known as ERR-α or ERR-1) (Homo sapiens, UniProt P11474)
T1 sequence (P11474 193-421 limits assumed): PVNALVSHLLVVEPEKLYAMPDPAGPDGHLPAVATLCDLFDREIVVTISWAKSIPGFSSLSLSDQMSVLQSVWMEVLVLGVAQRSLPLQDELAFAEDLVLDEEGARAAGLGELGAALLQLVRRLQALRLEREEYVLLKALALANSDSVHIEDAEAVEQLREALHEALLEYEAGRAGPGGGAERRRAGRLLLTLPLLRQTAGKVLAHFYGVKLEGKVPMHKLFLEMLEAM
Test: TR-FRET assay (disruption of co-activator peptide binding to ERR1 LBD)
Type: biochemical
Conditions: 6 nM 6His-ERR1LBD, 6 nM GST-SRC-2 peptide; average of 3 independent experiments
Procedure: Time-Resolved Fluorescence Resonance Energy Transfer (TR-FRET) experiments were performed to examine the functional response of ERR1 (also known as ERR-α or ERR-1) ligands. The TR-FRET assay described herein relied on the conformation of ERR1 for binding to a co-activator peptide: when a test compound binds to ERR1 and alters its conformation, it can disrupt the binding of the co-activator peptide. The components of this homogeneous secondary assay included: the ^6His-tagged-ERR1LBD, a GST-labeled-hSRC2 co-activator polypeptide and a fluorescent donor/acceptor pair from CIS bio international htrf/bioassays (Bedford, Mass.) using both an α-GST Europium (Eu) Cryptate label and an α^6His-XL665 (allophycocyanin) fluorophore.
For TR-FRET measurements, the reaction was buffered in 25 mM Tris pH 8, 2.5 mM Hepes, 20 mM KCl, 1 mM DTT, and 0.05 mg/mL BSA (delipidated). The final concentrations of reagents were 6 nM of ERR1LBD, 6 nM GST-SRC-2 peptide, 30 nM Eu cryptate, and 7.5 nM a^6His-XL665. Reactions were allowed to reach equilibrium at 25° C. for 4-18 h before collecting data on the Analyst from LJL Biosystems (Molecular Devices Sunnyvale, Calif.). […] Dose response curves were fitted using a hyperbolic equation and the data reported is the average of 3 independent experiments.

Structure (SMILES)	EC50 [nM]
O=C1S/C(=C\c2ccc3c(cnn3Cc3ccc(Cl)cc3C(F)(F)F)c2)C(=O)N1[C@@H]1CNCC[C@@H]1F (relative stereo) [Compound 199, (5Z)-5-({1-[4-Chloro-2-(trifluoromethyl)benzyl]-1H-indazol-5-yl}methylidene)-3-(cis-4-fluoropiperidin-3-yl)-1,3-thiazolidine-2,4-dione]	15
O=C1S/C(=C\c2ccc3c(cnn3Cc3ccc(C(F)(F)F)cc3C(F)(F)F)c2)C(=O)N1[C@@H]1CNCC[C@@H]1F (relative stereo) [Compound 200, (5Z)-5-({1-[2,4-Bis(trifluoromethyl)benzyl]-1H-indazol-5-yl}methylidene)-3-(cis-4-fluoropiperidin-3-yl)-1,3-thiazolidine-2,4-dione]	14
O=C1S/C(=C\c2ccc3c(cnn3Cc3ccc(Cl)cc3C(F)(F)F)c2)C(=O)N1[C@H]1CCNC[C@H]1F (relative stereo) [Compound 201, (5Z)-5-({1-[4-Chloro-2-(trifluoromethyl)benzyl]-1H-indazol-5-yl}methylidene)-3-(cis-3-fluoropiperidin-4-yl)-1,3-thiazolidine-2,4-dione]	61
O=C1S/C(=C\c2ccc3c(cnn3Cc3ccc(Cl)cc3C(F)(F)F)c2)C(=O)N1[C@@H]1CCN[C@@H](CO)C1 (relative stereo) [Compound 269, (5Z)-5-({1-[4-Chloro-2-(trifluoromethyl)benzyl]-1H-indazol-5-yl}methylidene)-3-[trans-2-(hydroxymethyl)piperidin-4-yl]-1,3-thiazolidine-2,4-dione]	67
O=C1S/C(=C\c2ccc3c(cnn3Cc3ccc(Cl)cc3C(F)(F)F)c2)C(=O)N1[C@@H]1CCNC[C@H]1O (relative stereo) [Compound 270, (5Z)-5-({1-[4-Chloro-2-(trifluoromethyl)-benzyl]-1H-indazol-5-yl}methylidene)-3-[trans-3-hydroxypiperidin-4-yl]-1,3-thiazolidine-2,4-dione]	25
O=C1S/C(=C\c2ccc3c(cnn3Cc3ccc(C(F)(F)F)cc3C(F)(F)F)c2)C(=O)N1[C@@H]1CCNC[C@H]1O (relative stereo) [Compound 271, (5Z)-5-({1-[2,4-Bis(trifluoromethyl)benzyl]-1H-indazol-5-yl}methylidene)-3-[trans-3-hydroxypiperidin-4-yl]-1,3-thiazolidine-2,4-dione]	38
O=C1S/C(=C\c2ccc3c(cnn3Cc3ccc(F)cc3C(F)(F)F)c2)C(=O)N1[C@@H]1CCNC[C@H]1O (relative stereo) [Compound 272, (5Z)-5-({1-[4-Fluoro-2-(trifluoromethyl)-benzyl]-1H-indazol-5-yl}methylidene)-3-[trans-3-hydroxypiperidin-4-yl]-1,3-thiazolidine-2,4-dione]	153
O=C1S/C(=C\c2ccc3c(cnn3Cc3ccc(Cl)cc3C(F)(F)F)c2)C(=O)N1[C@@H]1CCNC[C@H]1F (relative stereo) [Compound 273, (5Z)-5-({1-[4-Chloro-2-(trifluoromethyl)benzyl]-1H-indazol-5-yl}methylidene)-3-(trans-3-fluoropiperidin-4-yl)-1,3-thiazolidine-2,4-dione]	34
O=C1S/C(=C\c2ccc3c(cnn3Cc3ccc(C(F)(F)F)cc3C(F)(F)F)c2)C(=O)N1[C@@H]1CCNC[C@H]1F (relative stereo) [Compound 274, (5Z)-5-({1-[2,4-Bis(trifluoromethyl)benzyl]-1H-indazol-5-yl}methylidene)-3-(trans-3-fluoropiperidin-4-yl)-1,3-thiazolidine-2,4-dione]	88
CN1CC[C@@H](N2C(=O)S/C(=C\c3ccc4c(cnn4Cc4ccc(Cl)cc4C(F)(F)F)c3)C2=O)[C@H](O)C1 (relative stereo) [Compound 275, (5Z)-5-({1-[4-Chloro-2-(trifluoromethyl)-benzyl]-1H-indazol-5-yl}methylidene)-3-[trans-3-hydroxy-1-methylpiperidin-4-yl]-1,3-thiazolidine-2,4-dione]	23
CN1CC[C@@H](N2C(=O)S/C(=C\c3ccc4c(cnn4Cc4ccc(C(F)(F)F)cc4C(F)(F)F)c3)C2=O)[C@H](O)C1 (relative stereo) [Compound 276, (5Z)-5-({1-[2,4-Bis(trifluoromethyl)benzyl]-1H-indazol-5-yl}methylidene)-3-[trans-3-hydroxy-l-methylpiperidin-4-yl]-1,3-thiazolidine-2,4-dione]	29
CN1CC[C@@H](N2C(=O)S/C(=C\c3ccc4c(cnn4Cc4ccc(C(F)(F)F)cc4C(F)(F)F)c3)C2=O)[C@H](F)C1 (relative stereo) [Compound 278, (5Z)-5-({1-[2,4-Bis(trifluoromethyl)benzyl]-1H-indazol-5-yl}methylidene)-3-(trans-3-fluoro-1-methylpiperidin-4-yl)-1,3-thiazolidine-2,4-dione]	71
O=C1S/C(=C\c2ccc3c(cnn3Cc3ccc(Cl)cc3C(F)(F)F)c2)C(=O)N1[C@@H]1CNCC[C@H]1O (relative stereo) [Compound 279, (5Z)-5-({1-[4-Chloro-2-(trifluoromethyl)-benzyl]-1H-indazol-5-yl}methylidene)-3-[trans-4-hydroxypiperidin-3-yl]-1,3-thiazolidine-2,4-dione]	22
O=C1S/C(=C\c2ccc3c(cnn3Cc3ccc(C(F)(F)F)cc3C(F)(F)F)c2)C(=O)N1[C@@H]1CNCC[C@H]1O (relative stereo) [Compound 280, (5Z)-5-({1-[2,4-Bis(trifluoromethyl)benzyl]-1H-indazol-5-yl}methylidene)-3-[trans-4-hydroxypiperidin-3-yl]-1,3-thiazolidine-2,4-dione]	34
O=C1S/C(=C\c2ccc3c(cnn3Cc3ccc(F)cc3C(F)(F)F)c2)C(=O)N1[C@@H]1CNCC[C@H]1O (relative stereo) [Compound 281, (5Z)-5-({1-[4-Fluoro-2-(trifluoromethyl)-benzyl]-1H-indazol-5-yl}methylidene)-3-[trans-4-hydroxypiperidin-3-yl]-1,3-thiazolidine-2,4-dione]	170
O=C1S/C(=C\c2ccc3c(cnn3Cc3ccc(Cl)cc3C(F)(F)F)c2)C(=O)N1[C@@H]1CNC[C@H]1O (relative stereo) [Compound 316, (5Z)-5-({1-[4-Chloro-2-(trifluoromethyl)benzyl]-1H-indazol-5-yl}methylidene)-3-[trans-4-hydroxypyrrolidin-3-yl]-1,3-thiazolidine-2,4-dione]	36
O=C1S/C(=C\c2ccc3c(cnn3Cc3ccc(Cl)cc3C(F)(F)F)c2)C(=O)N1[C@@H]1CNC[C@H]1F (relative stereo) [Compound 317, (5Z)-5-({1-[4-Chloro-2-(trifluoromethyl)benzyl]-1H-indazol-5-yl}methylidene)-3-[trans-4-fluoropyrrolidin-3-yl]-1,3-thiazolidine-2,4-dione]	12
CN1C[C@@H](O)[C@H](N2C(=O)S/C(=C\c3ccc4c(cnn4Cc4ccc(Cl)cc4C(F)(F)F)c3)C2=O)C1 (relative stereo) [Compound 318]	24
CN1C[C@@H](F)[C@H](N2C(=O)S/C(=C\c3ccc4c(cnn4Cc4ccc(Cl)cc4C(F)(F)F)c3)C2=O)C1 (relative stereo) [Compound 319, (5Z)-5-({1-[4-Chloro-2-(trifluoromethyl)benzyl]-1H-indazol-5-yl}methylidene)-3-[trans-4-fluoro-1-methylpyrrolidin-3-yl]-1,3-thiazolidine-2,4-dione]	21
CCN1C[C@@H](F)[C@H](N2C(=O)S/C(=C\c3ccc4c(cnn4Cc4ccc(Cl)cc4C(F)(F)F)c3)C2=O)C1 (relative stereo) [Compound 320, (5Z)-5-({1-[4-Chloro-2-(trifluoromethyl)benzyl]-1H-indazol-5-yl}methylidene)-3-[trans-1-ethyl-4-fluoropyrrolidin-3-yl]-1,3-thiazolidine-2,4-dione]	31
CC(C)N1C[C@@H](F)[C@H](N2C(=O)S/C(=C\c3ccc4c(cnn4Cc4ccc(Cl)cc4C(F)(F)F)c3)C2=O)C1 (relative stereo) [Compound 321, (5Z)-5-({1-[4-Chloro-2-(trifluoromethyl)benzyl]-1H-indazol-5-yl}methylidene)-3-[trans-4-fluoro-1-(1-methylethyl)pyrrolidin-3-yl]-1,3-thiazolidine-2,4-dione]	43
O=C1S/C(=C\c2ccc3c(cnn3Cc3ccc(Cl)cc3C(F)(F)F)c2)C(=O)N1[C@@H]1CNC[C@@H]1F (relative stereo) [Compound 322, (5Z)-5-({1-[4-Chloro-2-(trifluoromethyl)benzyl]-1H-indazol-5-yl}methylidene)-3-[cis-4-fluoropyrrolidin-3-yl]-1,3-thiazolidine-2,4-dione]	60
